Here are results for two molecules from patent US6706470B2, “Gene switches” (priority 1999, dated 2004).

For one experiment, the system named is DNA target AGCTTGGCG
In words: Dissociation of zinc finger phage from its DNA target by actinomycin D. Format: binding. The procedure:
(§1) This example describes phage that bound DNA targets with higher affinity in the absence of ligand. These phage were isolated using either: (a) the same method as in example 1.1, or (b) by selection in the absence of small molecule and phage elution from DNA using a small molecule.
(§2) Phage selection is over 4 rounds. Binding reactions contain 10 pmol biotinylated DNA site immobilised on 50 mg streptavidin coated beads (Dynal) and a 1 ml solution of zinc finger phage library (as described in 1.1) Reactions were incubated for 1 h on a rolling platform. After this time, beads were washed 20 times as described in 1.1 and finally phage were eluted from the beads over 5 minutes using a solution containg ligand (10 μM Distamycin A, or 1 μM Actinomycin D in PBS/Zn).
The actinomycin D sensitive clone was selected with the DNA target AGCTTGGCG and its helices were sequenced as: […]

The subject of experiment [1] is DNA target AAAAAGCGGAAAAA
Description: Dissociation of zinc finger phage from its DNA target by distamycin A. Format: binding. The procedure: as §1, §2
Some phage isolated by either of the above methods (a or b) bound DNA in the absence of ligand but could be displaced by concentrations of distamycin A at 10 μM and actinomycin D at 1 μM. The distamycin sensitive clone was selected using the DNA target AAAAAGCGGAAAAA (SEQ ID NO:48) and its helices were sequenced as: […]

For another experiment, the system named is DNA sequence AAAAAGGCG
In words: Phage ELISA: zinc finger phage binding to DNA with and without distamycin A. Conditions: DNA concentration constant at 2 nM. For orientation: In an ELISA, binding on a coated surface is turned into a signal by an enzyme label.

The test system of experiment [2] is CAT reporter gene downstream of the sequence AAAAAAGGCG
Description: Transient transfection CAT reporter assay. Format: cell-based. Conditions: in the presence of Distamycin A; zinc finger-HSV VP16 fusion cotransfected.

Molecules are shown by their SMILES. Starred links: 1 amine or outer side, 2 acyl side, 3 side chain; linkers in the order of their positions; H or OH if unused. Positions of bridges follow the written chain, without caps; N, C: chain ends. Non-standard residues stand in square brackets, D forms with d. Residues, ends and D or L forms follow the SMILES beside them. Chains are numbered I, II in the order given. Actinocin(9to1) = Cc1c2oc3c(C)ccc(C(=O)[*:1])c3nc-2c(C(=O)[*:2])c(N)c1=O; NMeV = CN[C@H](C(=O)O)C(C)C; Sar = CNCC(=O)O

For the molecule `Cc1c2oc3c(C)ccc(C(=O)N[C@@H]4C(=O)N[C@H](C(C)C)C(=O)N5CCC[C@H]5C(=O)N(C)CC(=O)N(C)[C@@H](C(C)C)C(=O)O[C@@H]4C)c3nc-2c(C(=O)N[C@@H]2C(=O)N[C@H](C(C)C)C(=O)N3CCC[C@H]3C(=O)N(C)CC(=O)N(C)[C@@H](C(C)C)C(=O)O[C@@H]2C)c(N)c1=O` [actinomycin D] (I: T[dV]P[Sar][NMeV] / II: T[dV]P[Sar][NMeV]; ester I:1-I:C, II:1-II:C; linker I:N-II:N via Actinocin(9to1)), the “effect of ligand on phage binding to specific DNA sequence” value in the experiment on DNA target AGCTTGGCG (FIG. 6) is listed as “dissociated from the DNA”. Also, in the experiment with DNA target AGCTTGGCG (actinomycin D sensitive clone), the “ligand concentration that displaces DNA-bound phage” value amounted to 1 µM.

On to `Cn1cc(NC(=O)c2cc(NC(=O)c3cc(NC=O)cn3C)cn2C)cc1C(=O)NCCC(=N)N` [distamycin A], for which the “effect of ligand on phage binding to specific DNA sequence” value in experiment [1] (FIG. 6) is reported as “dissociated from the DNA”. Besides, the “ligand concentration that displaces DNA-bound phage” value in experiment [1] (distamycin sensitive clone) came out at 10 µM. In addition, the “ligand concentration at which phage retention is close to background level” value in the experiment with DNA sequence AAAAAGGCG was ≤ 10^−9 M. Moreover, in experiment [2], the CAT gene expression entry is “CAT expression is observed”.
